This is an account of results in patent US20250051323A1 (RICHTER GEDEON NYRT., priority 2021, published 2025).

Experiment [1] concerns the target T1, human recombinant GABAA α5β3γ2 receptor (Homo sapiens (Human), UniProt P18507+P31644). As to the kind of experiment: Functional assay, QPatch automated whole-cell patch clamp, modulation of GABA-evoked current. In kind it is cell-based. The following applies: read-out: hGABAA α5 efficacy (percentage modulation of GABA-evoked peak current). On the procedure:
Human HEK293 cell lines expressing GABAAα5β3γ2 receptors were used in functional assays using the QPatch automated patch clamp system.
HEK293 cell lines stably expressing human recombinant GABAA α5β3γ2 receptor subunits (Millipore, CYL3053) were cultured in DMEM supplemented with 10% FBS (Gibco), passed two times per week and plated on Petri dishes previously coated with poly-d-lysine.
Automated whole-cell patch clamp recordings were made from cells 2-4 days after plating.
Inward currents were evoked at a holding potential of −80 mV by 3-s-long applications of the control agonist GABA at 1 μM at 2-4-min intervals first in concentration-matched DMSO (0.1 or 0.3%) control solution for five times, then in the presence of the test compound for four times, finally in control solution again for three times (wash-out). At the end of the experiment 100 μM GABA was applied to saturate the GABA-response and to assess the efficacy of the control GABA application. Current signals were low-pass filtered at 100 Hz and recorded at a sampling rate of 1 kHz.
The percentage modulation was calculated from the comparison of GABA-evoked peak current amplitudes in the presence and absence of the test compound.

The target in experiment [2] is T1, human recombinant GABAA α5β3γ2 receptor. Put plainly: Binding assay, [3H]Ro151788 displacement on HEK cell membranes. The following applies: [3H]Ro151788 0.5 nM, 60 minutes at 4° C., Cheng-Prusoff; read-out: hGABAA α5 Ki. How it is done:
The GABAA α5β3γ2 protein used for the receptor binding assay was derived from membranes produced from HEK cells (Millipore CYL3073) expressing the human recombinant GABAA α5β3γ2 receptor. Cells were stored and cultured in-house according to the instructions provided by the vendor (Millipore). Cell pellet was homogenized in 10 times modified Krebs Henseleit buffer (membrane preparation buffer): 20 mM Tris, 120 mM NaCl, 100 mM KCl, 25 mM CaCl2 and 25 mM MgCl2 pH=7.4 at 4° C. using Ultra Turrax (Janke&Kunkel) maximal speed for 15 seconds. The homogenate was centrifuged at 40,000 g for 30 minutes at 4° C. Supernatant was discarded and the resulting pellet was washed in membrane preparation buffer. Pellet was resuspended in membrane preparation buffer and aliquots of 1.4 mL ampules were stored at −70° C. until use.
Receptor binding assays were performed in 96-well format in deep-well plates. For each 96-well plate one ampule of membrane homogenate was thawed and diluted in binding buffer (50 mM Tris pH=7.4, 100 mM KCl) and 200 μL was dispensed into each well. Radioligand [^3H]Ro151788 (Perkin Elmer: NET757250UC) was prepared in binding buffer and added to each well in 50 μL volume to give final concentration of 0.5 nM. Test compounds in suitable concentration(s) were added in additional 50 μL. The final assay volume was 300 μL. Incubation was carried out for 60 minutes at 4° C. For non-specific binding 10 μM unlabeled diazepam was used. […] The plate was dried at 40° C. for an hour and 40 μL Microscint (Perkin Elmer) scintillation cocktail was added to each well. The plate was read in Microbeta (Perkin Elmer).
The specific radioligand binding (SB) was defined as the difference between total binding (Tot) and the non-specific binding (NSB). Results are expressed as a percent inhibition of specific binding obtained in the presence of compound of interest.
For IC50 and Ki determination a minimum of six drug concentrations in triplicate were used. […] Ki values (i.e., inhibition constants) were calculated using the Cheng-Prusoff equation Ki=IC5O/[1+(L/KD)], where [L] is the radioligand concentration and KD the affinity of the labelled ligand for receptor. KD was determined from the Saturation analyses.

[3] abbreviates: test compound 1 μM, GABA 1 μM, holding potential −80 mV.

Each structure is given as a SMILES string. Counter-ions that a name gives are not always drawn. Like-named read-outs stand apart in the source and are kept apart here.

T1 sequence (P31644 32-462): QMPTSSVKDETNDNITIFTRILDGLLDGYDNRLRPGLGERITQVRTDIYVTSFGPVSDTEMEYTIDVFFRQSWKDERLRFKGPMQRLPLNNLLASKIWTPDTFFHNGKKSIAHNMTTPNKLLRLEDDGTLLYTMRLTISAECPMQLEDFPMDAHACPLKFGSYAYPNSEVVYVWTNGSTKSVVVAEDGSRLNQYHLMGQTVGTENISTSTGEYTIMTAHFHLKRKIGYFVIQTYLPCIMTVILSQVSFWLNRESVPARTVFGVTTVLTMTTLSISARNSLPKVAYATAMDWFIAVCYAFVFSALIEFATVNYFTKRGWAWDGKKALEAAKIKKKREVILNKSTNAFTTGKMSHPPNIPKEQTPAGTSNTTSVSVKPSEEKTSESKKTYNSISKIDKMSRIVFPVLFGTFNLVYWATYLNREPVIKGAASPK
T1 sequence (P28472 26-473 partner): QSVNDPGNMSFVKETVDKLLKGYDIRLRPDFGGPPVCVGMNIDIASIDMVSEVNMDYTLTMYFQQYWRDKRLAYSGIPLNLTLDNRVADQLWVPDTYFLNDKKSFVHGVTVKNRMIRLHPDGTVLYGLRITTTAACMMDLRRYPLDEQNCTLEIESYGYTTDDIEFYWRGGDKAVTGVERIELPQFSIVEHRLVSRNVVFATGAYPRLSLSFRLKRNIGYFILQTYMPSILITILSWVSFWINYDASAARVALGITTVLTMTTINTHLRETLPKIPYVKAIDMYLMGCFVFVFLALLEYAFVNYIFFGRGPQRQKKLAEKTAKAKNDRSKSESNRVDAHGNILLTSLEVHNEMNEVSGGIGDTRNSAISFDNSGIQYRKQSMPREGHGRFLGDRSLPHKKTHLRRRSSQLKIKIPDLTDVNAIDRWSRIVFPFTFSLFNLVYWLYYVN
T1 sequence (P18507 40-475): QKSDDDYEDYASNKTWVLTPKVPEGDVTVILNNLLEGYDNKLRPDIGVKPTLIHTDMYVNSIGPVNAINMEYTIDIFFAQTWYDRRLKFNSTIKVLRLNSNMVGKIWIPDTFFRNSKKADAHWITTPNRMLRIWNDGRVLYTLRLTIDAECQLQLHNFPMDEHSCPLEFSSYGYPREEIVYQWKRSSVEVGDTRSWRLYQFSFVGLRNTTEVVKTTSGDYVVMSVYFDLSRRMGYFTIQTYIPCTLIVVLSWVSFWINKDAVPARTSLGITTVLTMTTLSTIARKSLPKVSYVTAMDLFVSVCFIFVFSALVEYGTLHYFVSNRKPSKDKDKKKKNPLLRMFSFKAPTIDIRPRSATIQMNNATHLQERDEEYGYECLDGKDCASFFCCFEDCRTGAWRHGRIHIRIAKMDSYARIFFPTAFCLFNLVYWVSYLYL

`Cc1ccc(-n2nnc(C)c2COc2cc3c(cn2)CN(C2CCOC2)CC3)cn1` (racemic) [Example 29, 6-{[4-methyl-1-(6-methylpyridin-3-yl)-1H-1,2,3-triazol-5-yl]methoxy}-2-(oxolan-3-yl)-1,2,3,4-tetrahydro-2,7-naphthyridine]: in experiment [1] (setting [3]), the activation at 1 µM was found to be 102%. In experiment [2], the Ki was 0.0297 µM.
Turning to `Cc1ccc(-n2nnc(C)c2COc2cc3c(cn2)CN([C@@H]2CCOC2)CC3)cn1` (single isomer, unassigned) [Example 38, 6-{[4-methyl-1-(6-methylpyridin-3-yl)-1H-1,2,3-triazol-5-yl]methoxy}-2-[(3S)-oxolan-3-yl]-1,2,3,4-tetrahydro-2,7-naphthyridine or enantiomer, tartarate salt], in experiment [2], the inhibition constant (Ki) was determined as 0.0209 µM.
Still for that read-out and setting: with `Cc1ccc(-n2nnc(C)c2COc2cc3c(cn2)CN([C@H]2CCOC2)CC3)cn1` (single isomer, unassigned) [Example 39, 6-{[4-methyl-1-(6-methylpyridin-3-yl)-1H-1,2,3-triazol-5-yl]methoxy}-2-[(3R)-oxolan-3-yl]-1,2,3,4-tetrahydro-2,7-naphthyridine or enantiomer, tartarate salt] the figure was 0.0214 µM.
Turning to `Cc1ccc(-c2noc(C)c2COc2cc3c(cn2)CNCC3)cn1` [Example 1, 6-{[5-methyl-3-(6-methylpyridin-3-yl)-1,2-oxazol-4-yl]methoxy}-1,2,3,4-tetrahydro-2,7-naphthyridine trifluoroacetic acid salt], the activation at 1 µM in experiment [1] amounted to 155%. Besides, the inhibition constant Ki in experiment [2] turned out to be 0.0039 µM.
For `Cc1onc(-c2ccc(C(F)(F)F)nc2)c1COc1cc2c(cn1)CNCC2` [Example 2, 6-({5-methyl-3-[6-(trifluoromethyl)pyridin-3-yl]-1,2-oxazol-4-yl}methoxy)-1,2,3,4-tetrahydro-2,7-naphthyridine trifluoroacetic acid salt] the same measures were 100% and 0.037 µM.
In the case of `Cc1ccc(-c2noc(C)c2COc2cc3c(cn2)CN(C)CC3)cn1` [Example 3, 2-methyl-6-{[5-methyl-3-(6-methylpyridin-3-yl)-1,2-oxazol-4-yl]methoxy}-1,2,3,4-tetrahydro-2,7-naphthyridine], the Ki in experiment [2] turned out to be 0.0042 µM.
Regarding `Cc1ccc(-c2noc(C)c2COc2cc3c(cn2)CN(CC2CCC2)CC3)cn1` [Example 5, 2-(cyclobutylmethyl)-6-{[5-methyl-3-(6-methylpyridin-3-yl)-1,2-oxazol-4-yl]methoxy}-1,2,3,4-tetrahydro-2,7-naphthyridine], the Ki in experiment [2] was found to be 0.0074 µM.
On the same count and under the same terms, with `Cc1ccc(-c2noc(C)c2COc2cc3c(cn2)CN(C2CCCC2)CC3)cn1` [Example 6, 2-cyclopentyl-6-{[5-methyl-3-(6-methylpyridin-3-yl)-1,2-oxazol-4-yl]methoxy}-1,2,3,4-tetrahydro-2,7-naphthyridine] the figure was 0.0084 µM.
Turning to `Cc1onc(-c2ccc(C(F)(F)F)nc2)c1COc1cc2c(cn1)CN(C1CCOCC1)CC2` [Example 7, 6-({5-methyl-3-[6-(trifluoromethyl)pyridin-3-yl]-1,2-oxazol-4-yl}methoxy)-2-(oxan-4-yl)-1,2,3,4-tetrahydro-2,7-naphthyridine], in experiment [1] (setting [3]), the activation at 1 µM is 125%. Also, the Ki in experiment [2] came to 0.0293 µM.
For `Cc1onc(-c2ccc(C(F)(F)F)nc2)c1COc1cc2c(cn1)CN(C1CCOC1)CC2` (stereo not shown) [Example 8, 6-({5-methyl-3-[6-(trifluoromethyl)pyridin-3-yl]-1,2-oxazol-4-yl}methoxy)-2-(oxolan-3-yl)-1,2,3,4-tetrahydro-2,7-naphthyridine] the same measures were 133% and 0.0112 µM.
For `Cc1ccc(-c2noc(C)c2COc2cc3c(cn2)CN(C2CCOC2)CC3)cn1` (stereo not shown) [Example 9, 6-{[5-methyl-3-(6-methylpyridin-3-yl)-1,2-oxazol-4-yl]methoxy}-2-(oxolan-3-yl)-1,2,3,4-tetrahydro-2,7-naphthyridine] the same measures were 106% and 0.0049 µM.
Take `Cc1onc(-c2ccc(C(F)(F)F)nc2)c1COc1cc2c(cn1)CN(C(C)CS(C)(=O)=O)CC2` (stereo not shown) [Example 12, 2-(1-methanesulfonylpropan-2-yl)-6-({5-methyl-3-[6-(trifluoromethyl)pyridin-3-yl]-1,2-oxazol-4-yl}methoxy)-1,2,3,4-tetrahydro-2,7-naphthyridine]: the Ki in experiment [2] came to 0.0282 µM.
Same read-out and setting: with `Cc1onc(-c2ccc(C(F)(F)F)nc2)c1COc1cc2c(nn1)CN(C)CC2` [Example 17] the figure was 0.0176 µM; with `Cc1nnn(-c2ccc(C(F)F)nc2)c1COc1cc2c(cn1)CNCC2` [Example 23, 6-({1-[6-(difluoromethyl)pyridin-3-yl]-4-methyl-1H-1,2,3-triazol-5-yl}methoxy)-1,2,3,4-tetrahydro-2,7-naphthyridine], 0.0073 µM.
On to `Cc1nnn(-c2ccc(C(F)(F)F)nc2)c1COc1cc2c(cn1)CN(C(C)C)CC2` [Example 26, 6-({4-methyl-1-[6-(trifluoromethyl)pyridin-3-yl]-1H-1,2,3-triazol-5-yl}methoxy)-2-(propan-2-yl)-1,2,3,4-tetrahydro-2,7-naphthyridine], for which the inhibition constant (Ki) in experiment [2] worked out at 0.0938 µM.
With `Cc1nnn(-c2ccc(C(F)(F)F)nc2)c1COc1cc2c(cn1)CN(C)CC2` [Example 27, 2-methyl-6-({4-methyl-1-[6-(trifluoromethyl)pyridin-3-yl]-1H-1,2,3-triazol-5-yl}methoxy)-1,2,3,4-tetrahydro-2,7-naphthyridine], in experiment [2], the Ki is 0.0632 µM.
`Cc1nnn(-c2ccc(C(F)F)nc2)c1COc1cc2c(cn1)CN(C(C)C)CC2` [Example 28, 6-({1-[6-(difluoromethyl)pyridin-3-yl]-4-methyl-1H-1,2,3-triazol-5-yl}methoxy)-2-(propan-2-yl)-1,2,3,4-tetrahydro-2,7-naphthyridine]: the Ki in experiment [2] came to 0.0059 µM.
The same measure, in the same setting: to `Cc1nnn(-c2ccc(C(F)(F)F)nc2)c1COc1cc2c(cn1)CN(C1CCOCC1)CC2` [Example 35, 6-({4-methyl-1-[6-(trifluoromethyl)pyridin-3-yl]-1H-1,2,3-triazol-5-yl}methoxy)-2-(oxan-4-yl)-1,2,3,4-tetrahydro-2,7-naphthyridine] belongs 0.0888 µM.
Turning to `Cc1nnn(-c2ccc(C(F)(F)F)nc2)c1COc1cc2c(cn1)CN(c1cccnc1)CC2` [Example 37, 6-({4-methyl-1-[6-(trifluoromethyl)pyridin-3-yl]-1H-1,2,3-triazol-5-yl}methoxy)-2-(pyridin-3-yl)-1,2,3,4-tetrahydro-2,7-naphthyridine napadysilate salt], in experiment [1] (setting [3]), the activation at 1 µM came out at 53%.
As for `COc1ccc(-n2nnc(C)c2COc2cc3c(cn2)CN(C2CCOCC2)CC3)cn1` [Example 40, 6-{[1-(6-methoxypyridin-3-yl)-4-methyl-1H-1,2,3-triazol-5-yl]methoxy}-2-(oxan-4-yl)-1,2,3,4-tetrahydro-2,7-naphthyridine heminapadisylate salt], in experiment [1] (setting [3]), the activation at 1 µM was determined as 86%.
As to `Cc1ccc(-n2nnc(C)c2COc2cc3c(cn2)CN(C2(C(C)C)COC2)CC3)cn1` [Example 42, 6-{[4-methyl-1-(6-methylpyridin-3-yl)-1H-1,2,3-triazol-5-yl]methoxyl}-2-[3-(propan-2-yl)oxetan-3-yl]-1,2,3,4-tetrahydro-2,7-naphthyridine napadisylate salt], the activation at 1 µM in experiment [1] (setting [3]) came to 99%.
For `CCC1(N2CCc3cc(OCc4c(C)nnn4-c4ccc(C)nc4)ncc3C2)COC1` [Example 43, 2-(3-ethyloxetan-3-yl)-6-{[4-methyl-1-(6-methylpyridin-3-yl)-1H-1,2,3-triazol-5-yl]methoxy}-1,2,3,4-tetrahydro-2,7-naphthyridine napadisylate salt], the activation at 1 µM in experiment [1] (setting [3]) is 85%.

Usually Ki stands for a measure of affinity in units of concentration, obtained from inhibition or displacement.
